In ChEMBL document CHEMBL1201862, “PubChem BioAssay data set” (2004):
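Exposure lasted 48 hours, with cells grown in 96-well plates and compounds tested at five concentrations. GI50 is the concentration that inhibits growth by half.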 Active and inactive are the calls of the source. Rule as the data show it: active = GI50 up to about 1.1 µM and inactive = higher.

Experiments:
Test in all cases: NCI tumour cell line growth inhibition, 48 h
HCT-116 = tested on: HCT-116
K562 = tested on: K562
KM12 = tested on: KM12
MOLT-4 = tested on: MOLT-4
NCI-H23 = tested on: NCI-H23
NCI-H460 = tested on: NCI-H460
OVCAR-5 = tested on: OVCAR-5
RPMI-8226 = tested on: RPMI-8226
SF-268 = tested on: SF-268
SF-539 = tested on: SF-539
SK-OV-3 = tested on: SK-OV-3
SN12C = tested on: SN12C
SNB-75 = tested on: SNB-75
U-251 = tested on: U-251
HOP-62 = tested on: HOP-62
NCI-H522 = tested on: NCI-H522
UACC-257 = tested on: UACC-257

Structure (SMILES) | GI50 (HCT-116) | GI50 (K562) | GI50 (KM12) | GI50 (MOLT-4) | GI50 (NCI-H23) | GI50 (NCI-H460) | GI50 (OVCAR-5) | GI50 (RPMI-8226) | GI50 (SF-268) | GI50 (SF-539) | GI50 (SK-OV-3) | GI50 (SN12C) | GI50 (SNB-75) | GI50 (U-251) | GI50 (HOP-62) | GI50 (NCI-H522) | GI50 (UACC-257)
C[C@]12CC/C(=N\OC(=O)Nc3ccccc3)C=C1CC[C@@H]1C2CC[C@@]2(C)C1CC[C@@H]2OC(=O)Nc1ccccc1 (some centres undefined) | > 100 µM (inactive) | 17.7 µM (inactive) | 41.9 µM (inactive) | > 100 µM (inactive) | 73.3 µM (inactive) | > 100 µM (inactive) | > 100 µM (inactive) | 15.4 µM (inactive) | > 100 µM (inactive) | > 100 µM (inactive) | > 100 µM (inactive) | 11.7 µM (inactive) | 31.5 µM (inactive) | > 100 µM (inactive) |  |  | 
COC(=O)n1c(C[P+](c2ccccc2)(c2ccccc2)c2ccccc2)cc2ccccc21 | 1.11 µM (active) | 0.438 µM (active) | 1.19 µM (inactive) | 1.64 µM (inactive) | 1.86 µM (inactive) | 1.43 µM (inactive) | 2.11 µM (inactive) | 0.352 µM (active) | 2.93 µM (inactive) | 3.17 µM (inactive) | 0.652 µM (active) | 2.26 µM (inactive) | 3.94 µM (inactive) | 2.81 µM (inactive) | 1.73 µM (inactive) | 1 µM (active) | 
CC(C)(C)CC(C)(C)c1cc2c(O)c(c1)Cc1cc(C(C)(C)CC(C)(C)C)cc(c1O)Cc1cc(C(C)(C)CC(C)(C)C)cc(c1O)Cc1cc(C(C)(C)CC(C)(C)C)cc(c1O)Cc1cc(C(C)(C)CC(C)(C)C)cc(c1O)Cc1cc(C(C)(C)CC(C)(C)C)cc(c1O)Cc1cc(C(C)(C)CC(C)(C)C)cc(c1O)Cc1cc(C(C)(C)CC(C)(C)C)cc(c1O)C2 | > 100 µM (inactive) | > 100 µM (inactive) | > 100 µM (inactive) | > 100 µM (inactive) | > 100 µM (inactive) | > 100 µM (inactive) | > 100 µM (inactive) | > 100 µM (inactive) | > 100 µM (inactive) | > 100 µM (inactive) |  | > 100 µM (inactive) | 23.9 µM (inactive) | > 100 µM (inactive) | > 100 µM (inactive) | > 100 µM (inactive) | > 100 µM (inactive)
O/N=C1/C(=C/c2ccccc2)CCCC1C(NO)c1ccccc1 (centres undefined) | 48.1 µM (inactive) | 3.31 µM (inactive) | 85.3 µM (inactive) | 26.4 µM (inactive) | 59.2 µM (inactive) | 79.6 µM (inactive) | > 100 µM (inactive) | 35.5 µM (inactive) | 55.7 µM (inactive) | > 100 µM (inactive) | > 100 µM (inactive) | 69.8 µM (inactive) | > 100 µM (inactive) | > 10 µM (inactive) |  | 45.7 µM (inactive) | 38.5 µM (inactive)
COc1ccc(C=O)c(N(C)C(=O)C(C)(C)C)c1 | > 100 µM (inactive) | > 100 µM (inactive) | > 100 µM (inactive) | > 100 µM (inactive) | > 100 µM (inactive) | > 100 µM (inactive) |  | > 100 µM (inactive) | > 100 µM (inactive) | > 100 µM (inactive) | > 100 µM (inactive) | > 100 µM (inactive) | > 100 µM (inactive) | > 100 µM (inactive) | > 100 µM (inactive) | > 100 µM (inactive) | > 100 µM (inactive)
O=S(=O)(N/N=C/c1cccc(Cl)c1Cl)c1ccccc1 | 47 µM (inactive) | 62.2 µM (inactive) | > 100 µM (inactive) | 26.9 µM (inactive) | 45.6 µM (inactive) | > 100 µM (inactive) | > 100 µM (inactive) | 66.2 µM (inactive) | 35.5 µM (inactive) | 80 µM (inactive) | > 100 µM (inactive) | 46 µM (inactive) | 99.1 µM (inactive) | 90.4 µM (inactive) | > 100 µM (inactive) |  | 48 µM (inactive)
COc1cc(Nc2nc3cc(C)ccc3nc2-c2ccccc2)cc(OC)c1OC | 19.9 µM (inactive) | 23.4 µM (inactive) | 34.4 µM (inactive) | 18.3 µM (inactive) | 22.8 µM (inactive) | 15.8 µM (inactive) | > 100 µM (inactive) |  | 11.2 µM (inactive) |  | > 100 µM (inactive) | 28.7 µM (inactive) | 22.7 µM (inactive) | 35 µM (inactive) |  | 25.6 µM (inactive) | 47.5 µM (inactive)
COc1ccc(C(=O)C2CCC(C(=O)O)C2)cc1 (centres undefined) | > 100 µM (inactive) | > 100 µM (inactive) | > 100 µM (inactive) | > 100 µM (inactive) | > 100 µM (inactive) | > 100 µM (inactive) | > 100 µM (inactive) | > 100 µM (inactive) |  | > 100 µM (inactive) | > 100 µM (inactive) | > 100 µM (inactive) | > 100 µM (inactive) | > 100 µM (inactive) | > 100 µM (inactive) | > 100 µM (inactive) | > 100 µM (inactive)
